The text below walks through data of PMC5862408, “CCR2 antagonism leads to marked reduction in proteinuria and glomerular injury in murine models of focal segmental glomerulosclerosis (FSGS)” (PLoS ONE, 2018).

The subject of test [1] is diabetic nephropathy patients. Particulars: 52 weeks of treatment; cited from earlier work.
Test [2] has as its system 5/6 nephrectomized 129X1/SvJ mice. The experiment in a line: 5/6 nephrectomy model (comparison with ET1/AT1 dual inhibitor). The format is in vivo, mouse. How it is done:
Chemotaxis, calcium mobilization, and radio-ligand binding assays were conducted as previously described. Inhibition values (IC50) were calculated using non-linear regression with a one-site competition model (GraphPad Prism, GraphPad Software, La Jolla, CA). Urinary albumin was measured by ELISA (Bethyl Labs, Montgomery, TX). Urinary and serum creatinine was measured by LC-MS/MS at ChemoCentryx. The urinary albumin excretion rate (UAER) was calculated as micrograms per 24 h. Blood urea nitrogen (BUN) was measured by Antech Diagnostics (Morrisville, NC). Serum cystatin C was measured by ELISA (R&D Systems, Minneapolis, MN). The albumin to creatinine ratio (ACR) was calculated as micrograms of albumin per milligram of creatinine.
5/6 nephrectomy mice on the 129X1/SvJ background were obtained from Jackson Laboratories, and were received at ChemoCentryx after the surgery was performed at JAX. Under isoflurane anesthesia, two-thirds of the left kidney mass was removed at 5–6 weeks of age. Then, after 7 to 10 days, a right unilateral nephrectomy was performed. The mice were fed a standard chow and had free access to water. Three weeks after the 5/6 nephrectomy, the mice were grouped to ensure a similar starting UAER in each treatment group. CCX872 or its vehicle were dosed subcutaneously once daily formulated in 1% HPMC. The RAAS blocker Candesartan (AK Scientific, Union City, CA) and its vehicle were dosed orally once daily at 5 mg/kg formulated in water. Sparsentan, the dual-acting receptor antagonist for endothelin (A type) and angiotensin II receptors (Type 1) was synthesized at ChemoCentryx and was dosed orally twice daily at 90 mg/kg formulated in 1% HPMC. The mice were housed individually in metabolic cages for quantitative collection of urinary albumin and creatinine.
Fig 4 Relative efficacy of CCR2, RAAS, and endothelin receptor blockade in the 5/6 nephrectomy model as assessed by UACR (mg/mg). Mice underwent a 5/6 nephrectomy as described in Methods. Three weeks post-surgery the mice were randomized to the indicated groups for the study period of 4 weeks. Urine was collected for measurement of UACR at the indicated time points, as described in Methods. Error bars represent standard error of the mean. N = 10/group at week 1, and N = 6 at week 4. p values were calculated between each drug-treated group and vehicle treated animals (asterisk), or between the CCX872/RAAS blocker combination and RAAS blocker alone (octothorpe) using student’s t-test (GraphPad Prism).

Another test has as its system patients with FSGS. Details: method as in announced by Retrophin. Particulars: 8-week time point, 109 patients with FSGS, compared to irbesartan; ref announced by Retrophin; cited from earlier work.
[3] abbreviates: individual mice, listed as ET1/AT1 Dual.

Values joined by “and” are separate entries in the source; they are usually repeats but may differ in a detail not shown here. Equal values may be shown once.

On to `Cc1cnc(C(=O)c2ncnc3[nH]ccc23)c(NS(=O)(=O)c2ccc(Cl)c(C(F)(F)F)c2)c1` [CCX140-B], for which, in test [1], the proteinuria entry is “decreased and sustained reduction of proteinuria”.
In the case of `CCCCC1=NC2(CCCC2)C(=O)N1Cc1ccc(-c2ccccc2S(=O)(=O)Nc2noc(C)c2C)c(COCC)c1` [ET1/AT2 Dual Blocker, Sparsentan], the UAER in test [2] (Week 1, mean ± SEM) was 2.64 ± 0.75, p=0.036 mg/day. Moreover, the UAER in test [2] (Week 2, mean ± SEM) is on record as 1.54 ± 2.15, p=0.01 mg/day. The UAER in test [2] (Week 4, mean ± SEM) is on record as 1.15 ± 1.47, p=0.001 mg/day. Besides, in test [2] (setting [3]), the “UACR (mg/mg) at Week 1” value is 1.081 mg/mg and 2.162 mg/mg and 2.864 mg/mg and 2.81 mg/mg and 3.047 mg/mg and 2.101 mg/mg and 2.214 mg/mg and 0.6904 mg/mg and 5.004 mg/mg; the “UACR (mg/mg) at Week 4” value is 2.388 mg/mg and 0.4973 mg/mg and 0.675 mg/mg and 0.2626 mg/mg and 0.5926 mg/mg and 2.095 mg/mg and 0.7726 mg/mg; the “UAER (mg/day) at Week 1” value was 0.8511 mg/day and 1.523 mg/day and 1.648 mg/day and 2.037 mg/day and 2.769 mg/day and 1.544 mg/day and 1.531 mg/day and 0.6428 mg/day and 5.6 mg/day; the “UAER (mg/day) at Week 2” value was 1.304 mg/day and 1.518 mg/day and 4.44 mg/day and 2.237 mg/day and 1.797 mg/day and 4.071 mg/day and 1.476 mg/day and 0.485 mg/day and 1.88 mg/day. The “UAER (mg/day) at Week 4” value in test [2] (setting [3]) was 1.009 mg/day and 1.391 mg/day and 0.6452 mg/day and 0.283 mg/day and 0.9648 mg/day and 0.8066 mg/day and 1.065 mg/day. In addition, the “UACR reduction vs vehicle” value in test [2] (week one) is 93.5%. For the same molecule, the UACR in test [2] (week one, mean ± SEM, CCX872 90 mg/kg s.c. once daily, RAAS blocker 5 mg/kg orally once daily, Sparsentan 90 mg/kg orally twice daily) worked out at 2.44 ± 0.42 mg/mg. Besides, in the test with patients with FSGS, the “proteinuria (primary endpoint)” value is recorded as “statistically significant reduction in proteinuria as compared to irbesartan”.
